Measurements taken from PMC10932281, “A Combination of β-Aescin and Newly Synthesized Alkylamidobetaines as Modern Components Eradicating the Biofilms of Multidrug-Resistant Clinical Strains of Candida glabrata” (International Journal of Molecular Sciences, 2024).
Converted amounts (≈) assume the structure as drawn. Like-named read-outs stand apart in the source and are kept apart here.

Key:
C. glabrata ATCC 90030 [1] = assay: MIC90/MFC, EUCAST broth microdilution; assay type: cell-based, Candida glabrata; conditions: Nakaseomyces glabratus, ATCC90030, ATCC 90030; for MFC: read-out: MFC; for MIC90: read-out: MIC90
[2] = system: C. glabrata 2586 clinical strain; assay: MIC90/MFC, EUCAST broth microdilution; assay type: cell-based, Candida glabrata; conditions: Nakaseomyces glabratus; for MFC: read-out: MFC; for MIC90: read-out: MIC90
[3] = system: C. glabrata 2853 clinical strain; assay: MIC90/MFC, EUCAST broth microdilution; assay type: cell-based, Candida glabrata; conditions: Nakaseomyces glabratus; for MFC: read-out: MFC; for MIC90: read-out: MIC90
C. glabrata ATCC 90030 [4] = assay: FICI checkerboard, β-aescin with antifungal drugs; assay type: cell-based, Candida glabrata; conditions: combination with β-aescin
C. glabrata 2586 [5] = assay: FICI checkerboard, β-aescin with antifungal drugs; assay type: cell-based, Candida glabrata; conditions: combination with β-aescin
C. glabrata 2853 [6] = assay: FICI checkerboard, β-aescin with antifungal drugs; assay type: cell-based, Candida glabrata; conditions: for FICI: combination with β-aescin
C. glabrata ATCC 90030 [7] = assay: Interaction of AABs (3 µM) with antifungal agents, modified checkerboard; assay type: cell-based, Candida glabrata; conditions: for Multiplicity factor (MF) with C9: C9 3 µM, |MF| = MIC90 alone/MIC90 with AAB; for MIC90 of antimycotic combined with C9: C9 at constant 3 µM; for MIC90 of antimycotic combined with C9 / MIC90 of antimycotic combined with C11 / MIC90 of antimycotic combined with C13 / MIC90 of antimycotic combined with C15: dilutions in µg/mL; for Multiplicity factor (MF) with C11: C11 3 µM; for MIC90 of antimycotic combined with C11: C11 at constant 3 µM; for Multiplicity factor (MF) with C13: C13 3 µM; for MIC90 of antimycotic combined with C13: C13 at constant 3 µM; for Multiplicity factor (MF) with C15: C15 3 µM; for MIC90 of antimycotic combined with C15: C15 at constant 3 µM
C. glabrata 2586 [8] = assay: as above; assay type: cell-based, Candida glabrata; conditions: for Multiplicity factor (MF) with C9: C9 3 µM; for MIC90 of antimycotic combined with C9: C9 at constant 3 µM; for MIC90 of antimycotic combined with C9 / MIC90 of antimycotic combined with C11 / MIC90 of antimycotic combined with C13 / MIC90 of antimycotic combined with C15: dilutions in µg/mL; for Multiplicity factor (MF) with C11: C11 3 µM; for MIC90 of antimycotic combined with C11: C11 at constant 3 µM; for MIC90 of antimycotic combined with C13: C13 at constant 3 µM; for Multiplicity factor (MF) with C15: C15 3 µM; for MIC90 of antimycotic combined with C15: C15 at constant 3 µM
C. glabrata 2853 [9] = assay: as above; assay type: cell-based, Candida glabrata; conditions: for Multiplicity factor (MF) with C9: C9 3 µM; for MIC90 of antimycotic combined with C9: C9 at constant 3 µM; for MIC90 of antimycotic combined with C9 / MIC90 of antimycotic combined with C11 / MIC90 of antimycotic combined with C13 / MIC90 of antimycotic combined with C15: dilutions in µg/mL; for Multiplicity factor (MF) with C11: C11 3 µM; for MIC90 of antimycotic combined with C11: C11 at constant 3 µM; for Multiplicity factor (MF) with C13: C13 3 µM; for MIC90 of antimycotic combined with C13: C13 at constant 3 µM; for Multiplicity factor (MF) with C15: C15 3 µM; for MIC90 of antimycotic combined with C15: C15 at constant 3 µM
[10] = system: C. glabrata strains (ATCC 90030, 2586, 2853); assay: Interaction of AABs with antifungal agents, statements for all tested strains together; assay type: cell-based, Candida glabrata; conditions: all of the tested C. glabrata strains; AABs 3 µM
[11] = system: biofilms of C. glabrata DSM 1226 and two clinical isolates; parameters: method as in PMID 37508306; conditions: combination with β-AE; biofilms of three strains; ref [12]; cited from earlier work
[12] = system: C. glabrata ATCC 90030 and 24 clinical isolates; parameters: method as in PMID 26092104; conditions: ref [8], cited from earlier work
C. albicans = system: C. albicans; parameters: method as in doi:10.1016/j.carbpol.2003.10.001; conditions: C. albicans among organisms tested; ref [35]; cited from earlier work
[13] = parameters: method as in doi:10.1007/BF02673395; conditions: ref [48]; cited from earlier work

For CCC(C)n1ncn(-c2ccc(N3CCN(c4ccc(OCC5COC(Cn6cncn6)(c6ccc(Cl)cc6Cl)O5)cc4)CC3)cc2)c1=O (centres unmarked) [Itraconazole], the MFC (C. glabrata ATCC 90030 [1]) was 4100 µg/mL (≈ 5.8 mM), the MIC90 (C. glabrata ATCC 90030 [1]) was 4100 µg/mL (≈ 5.8 mM) and the MFC [2] was 4100 µg/mL (≈ 5.8 mM). The MIC90 [2] was 4100 µg/mL (≈ 5.8 mM), the MFC [3] was 4100 µg/mL (≈ 5.8 mM) and the MIC90 [3] was 4100 µg/mL (≈ 5.8 mM). It also gave an FICI (C. glabrata ATCC 90030 [4]) of 1.004, an FICI (C. glabrata 2586 [5]) of 1.004 and an FICI (C. glabrata 2853 [6]) of 1.004. For the same compound, the “Multiplicity factor (MF) with C9” value (C. glabrata ATCC 90030 [7]) was 1, the “MIC90 of antimycotic combined with C9” value (C. glabrata ATCC 90030 [7]) was 4096 and the “Multiplicity factor (MF) with C11” value (C. glabrata ATCC 90030 [7]) was 1. The “MIC90 of antimycotic combined with C11” value (C. glabrata ATCC 90030 [7]) was 4096, the “Multiplicity factor (MF) with C13” value (C. glabrata ATCC 90030 [7]) was 1 and the “MIC90 of antimycotic combined with C13” value (C. glabrata ATCC 90030 [7]) was 4096. The “Multiplicity factor (MF) with C15” value (C. glabrata ATCC 90030 [7]) was 1, the “MIC90 of antimycotic combined with C15” value (C. glabrata ATCC 90030 [7]) was 4096 and the “Multiplicity factor (MF) with C9” value (C. glabrata 2586 [8]) was 1. The “MIC90 of antimycotic combined with C9” value (C. glabrata 2586 [8]) was 4096, the “Multiplicity factor (MF) with C11” value (C. glabrata 2586 [8]) was 1 and the “MIC90 of antimycotic combined with C11” value (C. glabrata 2586 [8]) was 4096. For the same compound, the “Multiplicity factor (MF) with C13” value (C. glabrata 2586 [8]; C13 3 µM) was 1, the “MIC90 of antimycotic combined with C13” value (C. glabrata 2586 [8]) was 4096 and the “Multiplicity factor (MF) with C15” value (C. glabrata 2586 [8]) was 1. For the same compound, the “MIC90 of antimycotic combined with C15” value (C. glabrata 2586 [8]) was 4096, the “Multiplicity factor (MF) with C9” value (C. glabrata 2853 [9]) was 1 and the “MIC90 of antimycotic combined with C9” value (C. glabrata 2853 [9]) was 4096. For the same compound, the “Multiplicity factor (MF) with C11” value (C. glabrata 2853 [9]) was 1, the “MIC90 of antimycotic combined with C11” value (C. glabrata 2853 [9]) was 4096 and the “Multiplicity factor (MF) with C13” value (C. glabrata 2853 [9]) was 1. The “MIC90 of antimycotic combined with C13” value (C. glabrata 2853 [9]) was 4096, the “Multiplicity factor (MF) with C15” value (C. glabrata 2853 [9]) was 1 and the “MIC90 of antimycotic combined with C15” value (C. glabrata 2853 [9]) was 4096. For the same compound, the “MF with AABs” value [10] was 1 and the FICI [11] was ≤ 0.5.

Compound CC(=O)N1CCN(c2ccc(OCC3COC(Cn4ccnc4)(c4ccc(Cl)cc4Cl)O3)cc2)CC1 (centres unmarked) [Ketoconazole] has an MFC (C. glabrata ATCC 90030 [1]) of 1020 µg/mL (≈ 1.93 mM), an MIC90 (C. glabrata ATCC 90030 [1]) of 256 µg/mL (≈ 0.482 mM) and an MFC [2] of 1020 µg/mL (≈ 1.93 mM). For the same compound, the MIC90 [2] was 512 µg/mL (≈ 0.963 mM), the MFC [3] was 1020 µg/mL (≈ 1.93 mM) and the MIC90 [3] was 4 µg/mL (≈ 0.00753 mM). For the same compound, the FICI (C. glabrata ATCC 90030 [4]) was 2, the FICI (C. glabrata 2586 [5]) was 1.25 and the “Type of interaction with β-AE (by FICI)” value (C. glabrata 2853 [6]) was “additive”. The FICI (C. glabrata 2853 [6]) was 0.75, the “Multiplicity factor (MF) with C9” value (C. glabrata ATCC 90030 [7]) was 16 (16) and the “Multiplicity factor (MF) with C9” value (C. glabrata ATCC 90030 [7]; listed as ketoconazole) was 16. The “MIC90 of antimycotic combined with C9” value (C. glabrata ATCC 90030 [7]) was 16 (16), the “Multiplicity factor (MF) with C11” value (C. glabrata ATCC 90030 [7]) was 16 (16) and the “Multiplicity factor (MF) with C11” value (C. glabrata ATCC 90030 [7]; listed as ketoconazole) was 16. For the same compound, the “MIC90 of antimycotic combined with C11” value (C. glabrata ATCC 90030 [7]) was 16 (16), the “Multiplicity factor (MF) with C13” value (C. glabrata ATCC 90030 [7]) was 16 (16) and the “Multiplicity factor (MF) with C13” value (C. glabrata ATCC 90030 [7]; listed as ketoconazole) was 16. For the same compound, the “MIC90 of antimycotic combined with C13” value (C. glabrata ATCC 90030 [7]) was 16 (16), the “Multiplicity factor (MF) with C15” value (C. glabrata ATCC 90030 [7]) was 64 and the “MIC90 of antimycotic combined with C15” value (C. glabrata ATCC 90030 [7]) was 4. The “Multiplicity factor (MF) with C9” value (C. glabrata 2586 [8]) was 8, the “MIC90 of antimycotic combined with C9” value (C. glabrata 2586 [8]) was 64 and the “Multiplicity factor (MF) with C11” value (C. glabrata 2586 [8]) was 16. For the same compound, the “MIC90 of antimycotic combined with C11” value (C. glabrata 2586 [8]) was 32, the “MIC90 of antimycotic combined with C13” value (C. glabrata 2586 [8]) was 16 and the “Multiplicity factor (MF) with C15” value (C. glabrata 2586 [8]) was 64. For the same compound, the “MIC90 of antimycotic combined with C15” value (C. glabrata 2586 [8]) was 8, the “Multiplicity factor (MF) with C9” value (C. glabrata 2853 [9]) was 1 and the “MIC90 of antimycotic combined with C9” value (C. glabrata 2853 [9]) was 4. The “Multiplicity factor (MF) with C11” value (C. glabrata 2853 [9]) was 1, the “MIC90 of antimycotic combined with C11” value (C. glabrata 2853 [9]) was 4 and the “Multiplicity factor (MF) with C13” value (C. glabrata 2853 [9]) was 2 (2). For the same compound, the “Multiplicity factor (MF) with C13” value (C. glabrata 2853 [9]; listed as ketoconazole) was 2, the “MIC90 of antimycotic combined with C13” value (C. glabrata 2853 [9]) was 2 (2) and the “Multiplicity factor (MF) with C15” value (C. glabrata 2853 [9]) was 4. For the same compound, the “MIC90 of antimycotic combined with C15” value (C. glabrata 2853 [9]) was 1 and the FICI [11] was ≤ 0.5.

For C[C@@H]1[C@H](O)[C@@H](C)/C=C/C=C/CC/C=C/C=C/C=C/C=C/C(O[C@H]2O[C@H](C)[C@@H](O)[C@H](N)[C@@H]2O)CC2O[C@](O)(CC(O)C(O)CCC(O)CC(O)CC(O)CC(=O)O[C@H]1C)CC(O)C2C(=O)O (some centres unmarked) [nystatin], the “Fold reduction of MIC” value ([12]; subinhibitory concentrations of β-AE crystalline) is given as 2–16 fold and the “Fold reduction of MIC” value ([12]; subinhibitory concentrations of β-AE sodium) is given as 2–4 fold.

For “C12–C18 alkyl amido propyl dimethylamine betaine [AAPDB]”, the Antimicrobial activity (C. albicans) is given as “active”.

In the case of N-hexadecylamidepropylbetaine, the Krafft point [13] is listed as 16 °C.
